Measured values published in patent US6337333B1, “Method of treating autoimmune disease with fludarabine-5′-monophosphate” (priority 1992, dated 2002).

How the values were obtained:
[1] = tested on: Type II collagen-induced arthritis; conditions: cited from earlier work
[2] = tested on: T lymphocytes; assay: T lymphocyte proliferative response to mitogen after 18 hr drug pretreatment (3H-thymidine); format: cell-based, human; conditions: 18 hr pretreatment, FIG. 1A
Experimental: (§1) In FIG. 1, freshly isolated PBMC were enriched for T and B lymphocytes using Nylon Wool (see Materials and Methods, Example A). The enriched lymphocyte subpopulations were then incubated for 18 hrs at 37° C. with various concentrations of drug. At the end of the pretreatment period, the cell samples were washed, adjusted to 2×10^5 viable cells/ml, and cultured at 1×10^4/well in flat (B cells) or round (T cells) bottomed 96 well microtiter plates in […]. The T cells were incubated for 3 days with PHA-P ([…]) or Con A (5 μg/ml) and the B cells were cultured for 6 days with either PWM (2 μg/ml) or SAC ({fraction (1/60,000)}). 1 μCi of ^3H-thymidine was added per well during the last 18 hr of culture. The wells were then harvested onto glass fiber filters, and counted in 7 ml of Cytoscint (ICN) on the LKB 1219 Rackbeta scintillation counter. The results are expressed as the mean cpm of triplicate wells.
(§2) Peripheral blood mononuclear cells obtained from normal donors as packed leukocyte preparations were enriched for T and B lymphocytes and pretreated with drug for 18 hrs prior to mitogen stimulation.
(§3) Peripheral blood mononuclear cells enriched for either T or B lymphocytes were incubated for 18 hrs in complete S-10 medium at 37° C. in 12×75 mm culture tubes at 5×10^5 cells/ml. The cells were then washed in S-10 and cultured in triplicate for either 3 (T lymphocytes) or 6 (B lymphocytes) days at 2.5×10^4/well in round bottom 96-well microtiter plates in S-10 medium at 37° C. and a 5% CO2 humidified atmosphere. The wells were pulsed with 1 μCi 3H-thymidine for the last 18 hr of culture, harvested onto glass fiber filters, and counted with 7 ml Cytoscint with a LKB Rackbeta scintillation counter. The results are reported as “percent Suppression”:
(§4) % Suppression={1−(mean cpm exp./mean cpm stim control)}×100

[3] = tested on: B lymphocytes; assay: B lymphocyte proliferative response to mitogen after 18 hr drug pretreatment (3H-thymidine); format: cell-based, human; conditions: 18 hr pretreatment, FIG. 1B
Experimental: as §1, §2, §3, §4

[4] = tested on: IgM-RF and IgM production; conditions: therapeutic concentrations of drug; cited from earlier work

CC(C)(S)[C@@H](N)C(=O)O [D-penicillamine]
effect on disease [1]: early onset of the disease

Nc1nc(F)nc2c1ncn2[C@@H]1O[C@H](CO)[C@@H](O)[C@@H]1O [F]
suppression of T lymphocyte's ability to respond to mitogen [2]: suppress | suppression of B lymphocyte's ability to respond to mitogen [3]: suppress

O=C([O-])c1ccccc1Nc1cc(Cl)ccc1C(=O)[O-].[Na+].[Na+] [lobenzarit, disodium 4-chloro-2,2′-iminodibenzoate]
production of IgM [4]: suppressed | production of IgM-RF [4]: suppressed
